The values below come from US20190218261A1, “TARGETED ENHANCED DNA DEMETHYLATION” (The Jackson Laboratory, priority 2016, published 2019).

The assay has as its system hMLH1 expression (methylation-silenced hMLH1 promoter) in HEK293T cells. The assay is described as follows: hMLH1 mRNA levels by TaqMan qRT-PCR in transfected HEK293T cells. Particulars: for hMLH1 activation, comparison in words (direct dCas9 fusions vs Casilio-ME): same combination of sgRNAs; for hMLH1 expression, fold over background (change in mRNA levels): sgRNAs 3+7, 60 hours post-transfection, GAPDH control; for stimulation of TET1(CD) mediated hMLH1 activation by GADD45A PUFc fusions: co-expressed with PUFa-TET1(CD), gRNAs-PBSac. Type of assay: cell-based, human. The method, then: To test the system, HEK293T cells were transfected with Casilio-ME components including Ct or Nt-fusion TET1-effector and a combination of 3 or 2 sgRNAs. Relative levels of hMLH1 mRNA were determined in TaqMan assays by using RNA extracted from cells 60 hours post-transfection and GAPDH as endogenous control for normalization of qRT-PCR measurements.
Cell culture and transfection. HEK293T cells were cultivated in Dulbecco's modified Eagle's medium (DMEM)(Sigma) with 10% fetal bovine serum (FBS)(Lonza), 4% Glutamax (Gibco), 1% Sodium Pyruvate (Gibco) and penicillin-streptomycin (Gibco) in an incubator set to 37° C. and 5% CO2. When indicated cells were treated with 2.5 μM or 5 μM 5-Azacytidine (sigma) as indicated with a daily change of medium containing freshly diluted drug. Cells were seeded into 12-well plates at 150,000 cells per well the day before being transfected with 100 ng of dCas9 construct, 100 ng of modified sgRNA construct and 200 ng of PUF-fusion with Attractene transfection reagent according to manufacturer's instructions (Qiagen). In dCas9-direct fusion experiments, cells were transfected with 200 ng dCas9-fusion constructs and 200 ng of modified sgRNA constructs. Transfected cells were harvested 60 hours after transfection, or otherwise indicated, and cell pellets were used for extractions of RNA, genomic DNA and protein.
Quantitative RT-PCR analysis. Cells were harvested, washed with Dulbecco's phosphate-buffered saline (dPBS), centrifuged at 125×g for 5 min and then the flash-frozen pellets were stored at −80° C. RNA was extracted using RNeasy Plus Mini Kit according to the manufacturer's instructions (Qiagen). cDNA libraries were made using Applied Biosystems High Capacity RNA-to-cDNA kit with 200 ng to 1 μg of RNA. TaqMan gene expression assays (Applied Biosystems) were designed using GAPDH (Hs03929097, VIC) as endogenous control and hMLH1 (Hs00179866, FAM) as target. TaqMan Universal Master Mix II, with UNG (Applied Biosystems) was used for Quantitative PCR (qPCR), with 2 μl of diluted cDNA used for each reaction. Activation was analyzed with the Applied Biosystems ViiA7 instrument. Gene expression levels were calculated by “delta delta Ct” algorithm and normalized to control samples.
HEK293T cells were cultivated in Dulbecco's modified Eagle's medium (DMEM) (Sigma) with 10% fetal bovine serum (FBS) (Lonza), 4% Glutamax (Gibco), 1% Sodium Pyruvate (Gibco) and penicillin-streptomycin (Gibco) in an incubator set to 37° C. and 5% CO2. Cells were seeded into 12-well plates at 150,000 cells per well the day before being transfected with 100 ng of dCas9 construct, 100 ng of modified sgRNA construct and 200 ng of PUF-fusion with Attractene transfection reagent according to manufacturer's instructions (Qiagen). Transfected cells were harvested 3 days after transfection, or otherwise indicated, and cell pellets were used for RNA extractions.
Cells were harvested, washed with Dulbecco's phosphate-buffered saline (dPBS), centrifuged at 125×g for 5 min and then the flash-frozen pellets were stored at −80° C. RNA was extracted using RNeasy Plus Mini Kit according to the manufacturer's instructions (Qiagen). cDNA libraries were made using Applied Biosystems High Capacity RNA-to-cDNA kit with 200 ng to 2 μg of RNA. TaqMan gene expression assays (Applied Biosystems) were designed using GAPDH (Hs03929097, VIC) as endogenous control and hMLH1 (Hs00179866, FAM) as target. TaqMan Universal Master Mix II, with UNG (Applied Biosystems) was used for Quantitative PCR (qPCR), with 2 μl of diluted cDNA used for each reaction. Activation was analyzed with the Applied Biosystems ViiA7 instrument. Gene expression levels were calculated by “delta delta Ct” algorithm and normalized to control samples.
A general note: In qPCR the cycle at which signal appears reflects the starting amount.

On to “TET1(CD)-dCas9: direct N-terminal fusion of TET1(CD) to dCas9; SEQ ID NO:52”, for which the “hMLH1 activation, comparison in words (direct dCas9 fusions vs Casilio-ME)” value (HEK293T) is given as “much weaker activation than its respective C-terminal fusion”.

As to “dCas9-TET1(CD): direct C-terminal fusion of TET1(CD) to dCas9; SEQ ID NO:53”, where the note is “HEK293T”, the “hMLH1 activation, comparison in words (direct dCas9 fusions vs Casilio-ME)” value is reported as “relatively weak activation” and the “hMLH1 expression, fold over background (change in mRNA levels)” value is 19 fold. Further, for the setting “HEK293T, same sgRNA combination”, the “hMLH1 activation relative to dCas9-p65HSF1” value is given as “at best twice the activity obtained with transcription activator dCas9 fusion”. For the same molecule, where the note is “same sgRNAs combination, parallel experiment”, the “hMLH1 activation as share of activation obtained using Casilio-ME” value is listed as “about 14%”.

B1: PUFc-GADD45A: SEQ ID NO:106 (protein)
chain: MIDGGGGSDPKKKRKVDPKKKRKVDPKKKRKVGSTGSRNDGGGGSGGGGSGGGGSGRAGILPPKKKRKVSRGRSRLLEDFRNNRYPNLQLREIAGHIMEFSQDQHGSRFIQLKLERATPAERQLVFNEILQAAYQLMVDVFGNYVIQKFFEFGSLEQKLALAERIRGHVLSLALQMYGSRVIEKALEFIPSDQQNEMVRELDGHVLKCVKDQNGNHVVQKCIECVQPQSLQFIIDAFKGQVFALSTHPYGCRVIQRILEHCLPDQTLPILEELHQHTEQLVQDQYGSYVIEHVLEHGRPEDKSKIVAEIRGNVLVLSQHKFANNVVQKCVTHASRTERAVLIDEVCTMNDGPHSALYTMMKDQYANYVVQKMIDVAEPGQRKIVMHKIRPHIATLRKYTYGKHILAKLEKYYMKNGVDLGDPKKKRKVDPKKKRKVGGRGGGGSGGGGSGGGGSGPALTLEEFSAGEQKTERMDKVGDALEEVLSKALSQRTITVGVYEAAKLLNVDPDNVVLCLLAADEDDDRDVALQIHFTLIQAFCCENDINILRVSNPGRLAELLLLETDAGPAASEGAEQPPDLHCVLVTNPHSSQWKDPALSQLICFCRESRYMDQWVPVINLPERSRYPYDVPDYA
In the case of B1, the “stimulation of TET1(CD) mediated hMLH1 activation by GADD45A PUFc fusions” value is given as “significant stimulation of the TET1(CD) mediated hMLH1 activation”.

B2: GADD45A-PUFc: SEQ ID NO:107 (protein)
chain: MTLEEFSAGEQKTERMDKVGDALEEVLSKALSQRTITVGVYEAAKLLNVDPDNVVLCLLAADEDDDRDVALQIHFTLIQAFCCENDINILRVSNPGRLAELLLLETDAGPAASEGAEQPPDLHCVLVTNPHSSQWKDPALSQLICFCRESRYMDQWVPVINLPERSRYPYDVPDYAIDGGGGSDPKKKRKVDPKKKRKVDPKKKRKVGSTGSRNDGGGGSGGGGSGGGGSGRAGILPPKKKRKVSRGRSRLLEDFRNNRYPNLQLREIAGHIMEFSQDQHGSRFIQLKLERATPAERQLVFNEILQAAYQLMVDVFGNYVIQKFFEFGSLEQKLALAERIRGHVLSLALQMYGSRVIEKALEFIPSDQQNEMVRELDGHVLKCVKDQNGNHVVQKCIECVQPQSLQFIIDAFKGQVFALSTHPYGCRVIQRILEHCLPDQTLPILEELHQHTEQLVQDQYGSYVIEHVLEHGRPEDKSKIVAEIRGNVLVLSQHKFANNVVQKCVTHASRTERAVLIDEVCTMNDGPHSALYTMMKDQYANYVVQKMIDVAEPGQRKIVMHKIRPHIATLRKYTYGKHILAKLEKYYMKNGVDLGDPKKKRKVDPKKKRKVGGRGGGGSGGGGSGGGGSGPA
B2: the “stimulation of TET1(CD) mediated hMLH1 activation by GADD45A PUFc fusions” value is listed as “higher activity compared to PUFc-GADD45A fusions”.

B3: PUFa-GADD45A-TET1(CD): GADD45A between PUFa and TET1(CD); SEQ ID NO:105 (protein)
chain: MIDGGGGSDPKKKRKVDPKKKRKVDPKKKRKVGSTGSRNDGGGGSGGGGSGGGGSGRAGILPPKKKRKVSRGRSRLLEDFRNNRYPNLQLREIAGHIMEFSQDQHGSRFIQLKLERATPAERQLVFNEILQAAYQLMVDVFGNYVIQKFFEFGSLEQKLALAERIRGHVLSLALQMYGSRVIEKALEFIPSDQQNEMVRELDGHVLKCVKDQNGNHVVQKCIECVQPQSLQFIIDAFKGQVFALSTHPYGCRVIQRILEHCLPDQTLPILEELHQHTEQLVQDQYGNYVIQHVLEHGRPEDKSKIVAEIRGNVLVLSQHKFASNVVEKCVTHASRTERAVLIDEVCTMNDGPHSALYTMMKDQYANYVVQKMIDVAEPGQRKIVMHKIRPHIATLRKYTYGKHILAKLEKYYMKNGVDLGDPKKKRKVDPKKKRKVGGRGGGSGGGSGGGSGGGSGGGSGGGSLTLEEFSAGEQKTERMDKVGDALEEVLSKALSQRTITVGVYEAAKLLNVDPDNVVLCLLAADEDDDRDVALQIHFTLIQAFCCENDINILRVSNPGRLAELLLLETDAGPAASEGAEQPPDLHCVLVTNPHSSQWKDPALSQLICFCRESRYMDQWVPVINLPERSRGRGGGGSGGGGSGGGGSGPAELPTCSCLDRVIQKDKGPYYTHLGAGPSVAAVREIMENRYGQKGNAIRIEIVVYTGKEGKSSHGCPIAKWVLRRSSDEEKVLCLVRQRTGHHCPTAVMVVLIMVWDGIPLPMADRLYTELTENLKSYNGHPTDRRCTLNENRTCTCQGIDPETCGASFSFGCSWSMYFNGCKFGRSPSPRRFRIDPSSPLHEKNLEDNLQSLATRLAPIYKQYAPVAYQNQVEYENVARECRLGSKEGRPFSGVTACLDFCAHPHRDIHNMNNGSTVVCTLTREDNRSLGVIPQDEQLHVLPLYKLSDTDEFGSKEGMEAKIKSGAIEVLAPRRKKRTCFTQPVPRSGKKRAAMMTEVLAHKIRAVEKKPIPRIKRKNNSTTTNNSKPSSLPTLGSNTETVQPEVKSETEPHFILKSSDNTKTYSLMPSAPHPVKEASPGFSWSPKTASATPAPLKNDATASCGFSERSSTPHCTMPSGRLSGANAAAADGPGISQLGEVAPLPTLSAPVMEPLINSEPSTGVTEPLTPHQPNHQPSFLTSPQDLASSPMEEDEQHSEADEPPSDEPLSDDPLSPAEEKLPHIDEYWSDSEHIFLDANIGGVAIAPAHGSVLIECARRELHATTPVEHPNRNHPTRLSLVFYQHKNLNKPQHGFELNKIKFEAKEAKNKKMKASEQKDQAANEGPEQSSEVNELNQIPSHKALTLTHDNVVTVSPYALTHVAGPYNHWVID
As to B3, for the setting “GADD45A two-in-one effectors, HEK293T, TaqMan”, the “enhancement of hMLH1 expression relative to PUFa-TET1(CD) alone” value worked out at 4 fold.

B4: TET1(CD)-PUFa: TET1 catalytic domain fused to N-terminus of PUFa; SEQ ID NO:54 (protein)
chain: MGPAELPTCSCLDRVIQKDKGPYYTHLGAGPSVAAVREIMENRYGQKGNAIRIEIVVYTGKEGKSSHGCPIAKWVLRRSSDEEKVLCLVRQRTGHHCPTAVMVVLIMVWDGIPLPMADRLYTELTENLKSYNGHPTDRRCTLNENRTCTCQGIDPETCGASFSFGCSWSMYFNGCKFGRSPSPRRFRIDPSSPLHEKNLEDNLQSLATRLAPIYKQYAPVAYQNQVEYENVARECRLGSKEGRPFSGVTACLDFCAHPHRDIHNMNNGSTVVCTLTREDNRSLGVIPQDEQLHVLPLYKLSDTDEFGSKEGMEAKIKSGAIEVLAPRRKKRTCFTQPVPRSGKKRAAMMTEVLAHKIRAVEKKPIPRIKRKNNSTTTNNSKPSSLPTLGSNTETVQPEVKSETEPHFILKSSDNTKTYSLMPSAPHPVKEASPGFSWSPKTASATPAPLKNDATASCGFSERSSTPHCTMPSGRLSGANAAAADGPGISQLGEVAPLPTLSAPVMEPLINSEPSTGVTEPLTPHQPNHQPSFLTSPQDLASSPMEEDEQHSEADEPPSDEPLSDDPLSPAEEKLPHIDEYWSDSEHIFLDANIGGVAIAPAHGSVLIECARRELHATTPVEHPNRNHPTRLSLVFYQHKNLNKPQHGFELNKIKFEAKEAKNKKMKASEQKDQAANEGPEQSSEVNELNQIPSHKALTLTHDNVVTVSPYALTHVAGPYNHWVIDGGGGSDPKKKRKVDPKKKRKVDPKKKRKVGSTGSRNDGGGGSGGGGSGGGGSGRAGILPPKKKRKVSRGRSRLLEDFRNNRYPNLQLREIAGHIMEFSQDQHGSRFIQLKLERATPAERQLVFNEILQAAYQLMVDVFGNYVIQKFFEFGSLEQKLALAERIRGHVLSLALQMYGSRVIEKALEFIPSDQQNEMVRELDGHVLKCVKDQNGNHVVQKCIECVQPQSLQFIIDAFKGQVFALSTHPYGCRVIQRILEHCLPDQTLPILEELHQHTEQLVQDQYGNYVIQHVLEHGRPEDKSKIVAEIRGNVLVLSQHKFASNVVEKCVTHASRTERAVLIDEVCTMNDGPHSALYTMMKDQYANYVVQKMIDVAEPGQRKIVMHKIRPHIATLRKYTYGKHILAKLEKYYMKNGVDLGDPKKKRKVDPKKKRKVGGRGGGGSGGGGSGGGGSGPA
Turning to B4, the “hMLH1 expression, fold over background (change in mRNA levels)” value (HEK293T) was no more than 20 fold.
